Source: publication PMC11666850, “Development and evaluation of deuterated [^18F]JHU94620 isotopologues for the non-invasive assessment of the cannabinoid type 2 receptor in brain” (EJNMMI Radiopharmacy and Chemistry, 2024)
Where two headings read alike, the source gives them in different places.

Tests used:
CB1R = settings: cited from earlier work
CB2R [1] = settings: cited from earlier work
hCB2R(D80N) = hCB2R(D80N) (Homo sapiens, UniProt P34972, D80N); test: Homologous displacement autoradiography, brain cryosections of rats with hCB2R(D80N) overexpression; type: binding; settings: hCB2R(D80N) region, 10 µm rat brain cryosections, homologous displacement, n = 3; read-out: KD
Sequence of hCB2R(D80N) (P34972 whole entry D80N): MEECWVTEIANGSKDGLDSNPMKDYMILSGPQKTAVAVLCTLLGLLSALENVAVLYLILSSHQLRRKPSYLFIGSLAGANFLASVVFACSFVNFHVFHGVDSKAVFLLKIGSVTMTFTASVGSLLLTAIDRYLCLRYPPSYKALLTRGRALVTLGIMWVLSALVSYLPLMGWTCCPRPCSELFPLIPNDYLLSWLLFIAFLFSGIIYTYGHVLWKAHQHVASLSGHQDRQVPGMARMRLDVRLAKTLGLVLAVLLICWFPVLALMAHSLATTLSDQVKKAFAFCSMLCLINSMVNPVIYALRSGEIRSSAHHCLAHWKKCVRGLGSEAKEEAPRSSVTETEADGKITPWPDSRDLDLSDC

CB2R [2] = target: T1, CB2R (Rattus norvegicus, UniProt Q9QZN9); type: in vivo; settings: Wistar rats, i.v. pre-treatment 5 min prior tracer, between 2.5 and 20 min p.i., 1-way ANOVA p < 0.05
T1 construct: from tissue; host or cells: rat spleen: cryosections in vitro, and spleen of living Wistar rats in PET
T1 sequence (Q9QZN9 1-360): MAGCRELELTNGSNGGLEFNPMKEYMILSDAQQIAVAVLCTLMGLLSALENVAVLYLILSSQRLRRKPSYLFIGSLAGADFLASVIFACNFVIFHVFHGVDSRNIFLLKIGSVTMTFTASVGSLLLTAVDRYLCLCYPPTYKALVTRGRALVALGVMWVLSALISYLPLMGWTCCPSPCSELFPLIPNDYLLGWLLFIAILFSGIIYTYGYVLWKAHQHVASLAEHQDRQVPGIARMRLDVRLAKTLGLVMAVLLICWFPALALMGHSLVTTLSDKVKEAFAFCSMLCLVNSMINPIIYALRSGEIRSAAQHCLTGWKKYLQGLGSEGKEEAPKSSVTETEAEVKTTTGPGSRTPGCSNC
Procedure: The dynamic biodistribution of the radiotracer in the lower body of rats was assessed by small animal PET (Nanoscan, Mediso, Hungary) over 60 min with a subsequently T1-weighted MR. Anaesthetized (2% isoflurane, carrier gas mixture of 40% air and 60% O2) male Wistar rats (body weight: 205–308 g, age: 8–10 weeks, no gender-specific differences were taken into account) were kept during imaging on a heated animal bed to sustain body temperature and were pretreated with vehicle (DMSO:Kolliphore EL:0.9% saline, 1:2:7), JHU94620-d8 (1.5 mg kg^−1 bodyweight) or with GW405833 (5 mg kg^−1 bodyweight) 5 min prior tracer application ([^18F]JHU94620-d8: 7.7–28.2 MBq, 0.4 to 3.2 nmol kg^−1 bodyweight), whereby all injections were administered intravenously. For the evaluation of the hCB2R-specific binding of the radiotracer in the brain, female Wistar rats (n = 6, 253–269 g, age: 8 month) were used carrying stereotactically injected constructs of AAV2/7-CaMKII0.4-intron-hCB2R(D80N) in the right striatum and AAV2/7-CaMKII0.4-intron-3flag-eGFP in the control/contralateral striatum (Vandeputte et al. [2011]). 21–26 MBq corresponding to 0.2 to 2.0 nmol kg^−1 bodyweight radiotracer were injected, whereas in displacement studies 5 mg kg^−1 bodyweight GW405833 was administered 20 min after the radiotracer (each n = 3). The PET scans were performed six months after the stereotactic injections of the AAV2/7-constructs.
The acquisitions were performed in normal mode and a coincidence mode 1–5. For subsequent dynamic reconstructions list mode data were sorted into sinograms (12 × 10 s, 6 × 30 s, 5 × 60 s and 10 × 300 s). The frames were reconstructed by Ordered Subset Expectation Maximization applied to 3D (OSEM3D) sinograms corrected for decay and attenuation (4 iterations, 6 subsets and a voxel size of 0.4 mm^3) with the Nucline software v2.01 (Mediso, Budapest, Hungary). Analyses of reconstructed studies were performed with PMOD software (v4.205, PMOD Technologies LLC, Fällanden, Switzerland) and results are expressed in standardized uptake values (SUVs) or normalized to a reference region (SUVr).

CB2R [3] = target: T2, CB2R (Mus musculus, UniProt P47936); set-up: method as in Govaerts et al. [2004]; settings: mouse spleen; ref Govaerts et al. [2004]; cited from earlier work
T2 construct: from tissue; host or cells: mouse spleen cryosections
T2 sequence (P47936 whole entry): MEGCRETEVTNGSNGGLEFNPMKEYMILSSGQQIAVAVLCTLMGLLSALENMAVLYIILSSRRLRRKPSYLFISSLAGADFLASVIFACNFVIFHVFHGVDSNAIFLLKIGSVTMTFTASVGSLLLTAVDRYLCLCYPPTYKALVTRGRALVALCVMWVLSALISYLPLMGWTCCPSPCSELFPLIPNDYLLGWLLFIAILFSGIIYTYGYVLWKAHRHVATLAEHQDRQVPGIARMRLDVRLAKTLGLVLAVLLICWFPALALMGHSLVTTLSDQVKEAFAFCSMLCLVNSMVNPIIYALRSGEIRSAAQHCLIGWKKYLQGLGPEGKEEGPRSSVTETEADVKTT

CB2R [4] = target: T1, CB2R; set-up: method as in Govaerts et al. [2004]; settings: rat spleen; ref Govaerts et al. [2004]; cited from earlier work
human CB2R (hCB2R) = target: T3, human CB2R (hCB2R) (Homo sapiens, UniProt P34972); test: Homologous competition binding, CHO(hCB2R) cell membranes
T3 construct: expressed in transfected cells; host or cells: CHO(hCB2R) cells, obtained from Paul L. Prather, University of Arkansas for Medical Sciences
T3 sequence (P34972 whole entry): as the sequence (P34972 whole entry D80N) above, with N80D counted along it
Procedure: For binding studies crude homogenates of CHO(hCB2R) cells (obtained from Paul L. Prather, Department of Pharmacology and Toxicology, College of Medicine, University of Arkansas for Medical Sciences, USA) were incubated with the reference compound (self-blocking) or the CB2R-specific partial agonist GW405833 (Tocris Bioscience, Bristol, UK) with indicated concentrations at room temperature for 90 min. The total volume of 1 mL of each sample consisted of 600 µL incubation buffer (50 mM Tris HCl pH7.4, 5 mM MgCl2, 1 mM EDTA and 1% Bovine Serum Albumin), 200 µL cell membrane homogenates, 100 µL competitor or binding buffer (total binding) and 100 µl of binding buffer with [^18F]JHU94620-d8 (about 100 kBq per vial, corresponding to 0.8 to 1.6 nM). Incubation was terminated by rapid filtration through a GF-B glass fibre filter, pre-treated with 0.5% PVP with 0.1% Tween 20 solution, using a 48-well cell harvester, washed six times with buffer and filter bound activity was subsequently measured in a γ-counter (1480 WIZARD, Perkin Elmer, Turku, Finland).
(§1) The KD values were calculated with GraphPad Prism according to the modified Cheng-Prusoff method for homologous competitive binding studies, where the KD = Ki = IC50—[radioligand] and the Bmax = specific binding / [radioligand] / ((KD + [radioligand])) (Motulsky and Neubig [2000]), assuming a total protein content of 8.2% (1.3 10^–4 µg protein per voxel) in the spleen (Zaia et al. [2000]) or by determining the protein concentration of the cell membrane lysates using a BCA assay (Thermo Scientific, Braunschweig, Germany). The fractional occupancy defined as occupied binding sites per total binding sites is used to describe the binding fraction specifically bound to CB2R compared to unspecific binding, where [L] is the concentration of the ligand at the start of incubation.

CB2R [5] = target: T1, CB2R; test: Quantitative autoradiography, rat spleen cryosections; type: binding; settings: 100 nM CB2R PAM, rat spleen
Procedure: For quantitative autoradiography in different species, 10 µm cryosections from mouse, rat and piglet spleen were thawed, dried, and pre-incubated with incubation buffer for 10 min, dried under an airstream. Subsequently, the incubation buffer containing [^18F]JHU94620-d8 (59–137 GBq µmol^−1, 1.7–3.6 nM) was added alone or together with indicated concentrations of the reference compound. Additionally, to assess the non-specific binding of [^18F]JHU94620-d8 to cryosections GW405833 was added instead of the reference compound. After 90 min, cryosections were washed two times for 2 min with ice-cold 50 mM Tris HCl, pH7.4 and 10 s in ddH2O and subsequently dried under an airstream. For the calculation of the radioactivity concentration, 5 µl of five serial 1:2 dilutions of the incubation buffer with [^18F]JHU94620-d8 were air-dried on a microscopic slide. For binding studies in rat spleen cryosections by autoradiography with HLM-derived radiometabolites of [^18F]JHU94620-d8 obtained from the radiometabolite assay, the samples were added to the incubation buffer to a final activity concentration of 0.2 MBq mL^−1 and protocol was followed as described above. Subsequently, the slides were exposed to a phosphor imager plate. After scanning at high sensitivity and a 12.5 µm resolution with a CR35 Bio image plate scanner (Raytest Isotopenmessgeräte GmbH, Straubenhardt, Germany). The analyses of the autoradiographic images were performed with the AIDA 5.1 software (Elysia-Raytest, Angleur, Belgium) resulting in a resolution of 12.617 pixel × 12.616 pixel per µm^2 (1 voxel = 1592 µm^3 ≙ 1.59 10^–3 µg wet tissue) and inhibition curves were created with GraphPad Prism 9.5.1 (GraphPad Inc., La Jolla, CA).
as §1

[6] = Ex vivo radiometabolite analysis in CD-1 mice; settings: CD-1, mouse, in vivo, 30 min
Procedure: Female adult CD-1 mice (25–42 g body weight) were used for radiometabolite analysis of [^18F]JHU94620-d4 (n = 2, 33 and 34 MBq) and [^18F]JHU94620-d8 (n = 3, 26–33 MBq) at 30 min after intravenous tail vein injection of the radiotracer to allow for the comparison of radiometabolite analysis of [^18F]JHU94620 (Moldovan et al. [2016]). The mice were immobilized by short isoflurane narcosis for the injection of the radiotracer in a restrainer and awakened mice were kept in an isolated cage until euthanisation by cervical dislocation under isoflurane narcosis. Male Wistar rats (n = 12, 613–794 g) were used for radiometabolite analysis of [^18F]JHU94620-d8 at different time points (5, 15, 30 and 60 min p.i.) after intravenous tail vein injection of the radiotracer (37–74 MBq) for the correction of the input function in pharmacokinetic analysis. Rats were kept under isoflurane narcosis (gas mixture: 2.5% isoflurane and O2) on a warmed plate until euthanization by decapitation of deep narcotized animals. Plasma samples were obtained by centrifugation with 5500 g of blood samples for 2 min at 4 °C. Resected tissues brain and spleen were kept on ice and minced for 3 × 20 s with adding 0.5 to 1 mL of 0.9% NaCl using a Precellys lysing kit and Minilys homogenizer (Bertin Technologies SAS, Montigny-le-Bretonneux, France).
The samples were further processed for subsequent radio-chromatographic analyses. Two consecutive extractions were performed in duplicates for plasma and brain determinations. Plasma, brain and spleen samples were added to the four time the volume of an ice-cold MeOH/H2O mixture (9:1, v/v). The samples were vortexed for 3 min, incubated on ice for 5 min and centrifuged at 8,600 g for 5 min. Supernatants were collected and the precipitates were re-dissolved in 100 µL of extraction solvent and the extraction procedure was repeated. The activities of supernatants and precipitates were measured in a γ-counter (1480 WIZARD, Perkin Elmer), and the extraction efficiencies were calculated as the ratio of radioactivity in the supernatant to the radioactivity in the original sample (supernatant + precipitate). The supernatants from both extractions were combined, concentrated at 70 °C under argon stream up to a remaining volume of 100 µL, and subsequently analysed by analytical radio-HPLC (method A or B).

[7] = cited from earlier work
[8] = pH 7.4; cited from earlier work
hCB2R = target: hCB2R; set-up: method as in Moldovan et al. [2016]; settings: ref Moldovan et al. [2016]; cited from earlier work
hCB1R = target: hCB1R; set-up: method as in Moldovan et al. [2016]; settings: ref Moldovan et al. [2016]; cited from earlier work
[9] = ref McPartland et al. [2007], Kosar et al. [2024]
[10] = ref Caillé et al. [2017], Auvity et al. [2024]

## Δ^9-trans-tetrahydrocannabinol [THC]
CB1R; [9]
  Ki: 25 nM
CB2R [1]; [9]
  Ki: 36 nM

## Cc1s/c(=N\C(=O)C2C(C)(C)C2(C)C)n(CCOCC[18F])c1C [[^18F]FC0324, (Z)-N-(3-(2-(2-[^18F]Fluoroethoxy)ethyl)-4,5-dimethylthiazol-2(3H)-ylidene)-2,2,3,3-tetramethylcyclopropane-1-carboxamide]
CB1R; [10]
  Ki: 30 nM
CB2R [1]; [10]
  Ki: 0.1 nM

## CCCCC/C=C\C/C=C\C/C=C\C/C=C\CCCC(=O)NCCO [AEA, anandamide]
CB1R; [9]
  Ki: 240 nM
CB2R [1]; [9]
  Ki: 440 nM

## [2H]C([2H])(F)C([2H])([2H])C([2H])([2H])C([2H])([2H])n1c(C)c(C)s/c1=N\C(=O)C1C(C)(C)C1(C)C [JHU94620-d8, (Z)-N-(3-(4-Fluorobutyl-1,1,2,2,3,3,4,4-d8)-4,5-dimethylthiazol-2(3H)-ylidene)-2,2,3,3-tetramethylcyclopropane-1-carboxamide]
hCB2R(D80N)
  Kd: 41.3 nM
CB2R [2]
  blocking of [^18F]JHU94620-d8 uptake into the spleen: significantly blocked

## CCCCCCC(C)(C)c1ccc([C@@H]2C[C@H](O)CC[C@H]2CCCO)c(O)c1 [[^3H]CP55940]
CB2R [3]
  Bmax: 0.31 ± 0.03 pmol mg^−1 protein
CB2R [4]
  Bmax: 0.71 ± 0.02 pmol mg^−1 protein

## CCCCC/C=C\C/C=C\C/C=C\C/C=C\CCCC(=O)OC(CO)CO [2-AG, 2-arachydonilglycerol]
CB2R [1]; [9]
  Ki: 1190 nM

## COc1ccc2c(c1)c(CCN1CCOCC1)c(C)n2C(=O)c1cccc(Cl)c1Cl [GW405833, reference compound]
CB2R [2]
  blocking of [^18F]JHU94620-d8 uptake into the spleen: significantly blocked

## Cc1c(Br)cn(Cc2ccc(F)cc2)c(=O)c1NC(=O)C1CCCCCC1 [CB2R PAM, reference compound]
Human CB2R (hCB2R); 100 nM CB2R PAM, CHO(hCB2R) cell membranes
  effect of co-incubation on the binding of [^18F]JHU94620-d8: did not increase the binding
Human CB2R (hCB2R); CB2R PAM binding assay, Figure S9 as cited
  competition with [^18F]JHU94620-d8 binding: weak competitive binding
CB2R [5]
  effect of co-incubation on the binding of [^18F]JHU94620-d8: did not increase the binding

## Cc1s/c(=N\C(=O)C2C(C)(C)C2(C)C)n(CCCC[18F])c1C [[^18F]JHU94620]
[6]
  percentage printed at the radiotracer peak of the representative radio-HPLC chromatogram (Mice): 37%
[7]; CD-1 mouse brain, 30 min p.i., ref Moldovan et al. [2016]
  parent fraction in brain: 0.36
[7]; mouse, in vivo
  parent fraction in plasma: 0.07
[8]
  LogD7.4: 3.2
hCB2R
  Ki: 0.4 nM
hCB1R
  Ki: 380 nM
